This assay deals with human LPA1 receptor (Homo sapiens (Human), UniProt Q92633). Briefly: Beta-arrestin recruitment assay to determine IC50 values for human LPAR1. The format is cell-based. The following applies: antagonist mode, Tango EDG2-bla U2OS cells, LPA 18:1 500 nM final. The essentials: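 Antagonist IC50 = concentration giving 50% inhibition of maximal LPA response. Read-out is beta-lactamase reporter activity after arrestin-protease recruitment in U2OS cells bearing LPA1-TEV-Gal4-VP16 construct; cells pre-incubated 20 h, 37 °C, 5% CO2.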
Sequence of human LPA1 receptor (Q92633 whole entry, the tested form may be a part): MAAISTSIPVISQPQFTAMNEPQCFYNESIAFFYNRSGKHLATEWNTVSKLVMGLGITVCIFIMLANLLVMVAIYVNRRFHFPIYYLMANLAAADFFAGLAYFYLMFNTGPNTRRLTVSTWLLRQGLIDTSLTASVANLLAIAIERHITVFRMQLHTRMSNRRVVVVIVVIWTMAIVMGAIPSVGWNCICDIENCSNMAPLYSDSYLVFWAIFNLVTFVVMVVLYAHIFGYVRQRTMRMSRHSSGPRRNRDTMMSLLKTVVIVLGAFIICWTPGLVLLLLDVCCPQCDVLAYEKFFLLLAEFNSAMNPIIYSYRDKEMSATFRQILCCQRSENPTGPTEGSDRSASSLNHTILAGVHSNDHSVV
On the technique in general: Arrestin recruitment assays detect the binding of arrestin to an activated receptor.

Molecules are shown by their SMILES.

A word on the IC50: it is the concentration that gives 50% inhibition. A lower IC50 goes with higher potency.

Take `Cc1ccc(NC(=O)C2(c3ccccc3C(C)C)CN(C(=O)c3nnn[nH]3)C2)c(OC(F)F)n1` [Ex 12-18, N-(2-(difluoromethoxy)-6-methylpyridin-3-yl)-3-(2-isopropylphenyl)-1-(1H-tetrazole-5-carbonyl)azetidine-3-carboxamide]: the half-inhibitory concentration (IC50) is 25 nM. The compound `Cc1ccc(NC(=O)C2(c3ccccc3C(C)C)CCN(C(=O)Cn3cnnn3)CC2)c(OC(F)F)n1` [Ex 12-20, 1-(2-(1H-tetrazol-1-yl)acetyl)-N-(2-(difluoromethoxy)-6-methylpyridin-3-yl)-4-(2-isopropylphenyl)piperidine-4-carboxamide] gave an IC50 of 2 nM.

For `Cc1ccc(NC(=O)C2(c3ccccc3C(C)C)CCN(C(=O)Cn3nccn3)CC2)c(OC(F)F)n1` [Ex 12-22, 1-(2-(2H-1,2,3-triazol-2-yl)acetyl)-N-(2-(difluoromethoxy)-6-methylpyridin-3-yl)-4-(2-isopropylphenyl)piperidine-4-carboxamide], the IC50 was determined as 7 nM.

`Cc1ccc(NC(=O)C2(c3ccccc3C(C)C)CN(C(=O)Cn3cnnc3)C2)c(OC(F)F)n1` [Ex 12-23, 1-(2-(4H-1,2,4-triazol-4-yl)acetyl)-N-(2-(difluoromethoxy)-6-methylpyridin-3-yl)-3-(2-isopropylphenyl)azetidine-3-carboxamide] gave a 50% inhibitory concentration (IC50) of 21 nM. Take `Cc1ccc(NC(=O)C2(c3ccccc3C(C)C)CN(C(=O)Cc3cc(O)n[nH]3)C2)c(OC(F)F)n1` [Ex 12-24, N-(2-(difluoromethoxy)-6-methylpyridin-3-yl)-1-(2-(3-hydroxy-1H-pyrazol-5-yl)acetyl)-3-(2-isopropylphenyl)azetidine-3-carboxamide]: the IC50 was determined as 19 nM. As for `Cc1ccc(NC(=O)C2(c3ccccc3C(C)C)CCN(C(=O)Cc3cc(O)n[nH]3)CC2)c(OC(F)F)n1` [Ex 12-25, N-(2-(difluoromethoxy)-6-methylpyridin-3-yl)-1-(2-(3-hydroxy-1H-pyrazol-5-yl)acetyl)-4-(2-isopropylphenyl)piperidine-4-carboxamide], the 50% inhibitory concentration (IC50) came out at 15 nM. In turn, `Cc1ccc(NC(=O)C2(c3ccccc3C(C)C)CCN(C(=O)Cc3c[nH]nc3O)CC2)c(OC(F)F)n1` [Ex 12-27, N-(2-(difluoromethoxy)-6-methylpyridin-3-yl)-1-(2-(3-hydroxy-1H-pyrazol-4-yl)acetyl)-4-(2-isopropylphenyl)piperidine-4-carboxamide] showed an IC50 of 4 nM. This IC50 lies about 3.8-fold lower than the previous one. On to `Cc1ccc(NC(=O)C2(c3ccccc3C(C)C)CN(C(=O)CCn3cnnc3)C2)c(OC(F)F)n1` [Ex 12-28, 1-(3-(4H-1,2,4-triazol-4-yl)propanoyl)-N-(2-(difluoromethoxy)-6-methylpyridin-3-yl)-3-(2-isopropylphenyl)azetidine-3-carboxamide], for which the IC50 came out at 222 nM. This IC50 is about 56-fold higher than that of the compound before. The compound `Cc1ccc(NC(=O)C2(c3ccccc3C(C)C)CN(C(=O)CCc3cc(O)no3)C2)c(OC(F)F)n1` [Ex 12-29, N-(2-(difluoromethoxy)-6-methylpyridin-3-yl)-1-(3-(3-hydroxyisoxazol-5-yl)propanoyl)-3-(2-isopropylphenyl)azetidine-3-carboxamide] registered an IC50 of 32 nM.

`Cc1ccc(NC(=O)C2(c3ccccc3C(C)C)CN(C(=O)CCCc3nnn[nH]3)C2)c(OC(F)F)n1` [Ex 12-30, 1-(4-(1H-tetrazol-5-yl)butanoyl)-N-(2-(difluoromethoxy)-6-methylpyridin-3-yl)-3-(2-isopropylphenyl)azetidine-3-carboxamide] had an IC50 of 25 nM. In turn, `Cc1ccc(NC(=O)C2(c3ccccc3C(C)C)CN(C(=O)CC3CCN(C)CC3)C2)c(OC(F)F)n1` [Ex 12-31, N-(2-(difluoromethoxy)-6-methylpyridin-3-yl)-3-(2-isopropylphenyl)-1-(2-(1-methylpiperidin-4-yl)acetyl)azetidine-3-carboxamide] gave an IC50 of 337 nM. `Cc1ccc(NC(=O)C2(c3ccccc3C(C)C)CN(C(=O)[C@H](C)NC(=O)OC(C)(C)C)C2)c(OC(F)F)n1` [Ex 12-32, tert-butyl (S)-(1-(3-((2-(difluoromethoxy)-6-methylpyridin-3-yl)carbamoyl)-3-(2-isopropylphenyl)azetidin-1-yl)-1-oxopropan-2-yl)carbamate] gave an IC50 of 1720 nM. The compound `Cc1ccc(NC(=O)C2(c3ccccc3C(C)C)CN(C(=O)[C@H](C)N)C2)c(OC(F)F)n1` [Ex 12-33, 1-(L-alanyl)-N-(2-(difluoromethoxy)-6-methylpyridin-3-yl)-3-(2-isopropylphenyl)azetidine-3-carboxamide] gave an IC50 of 10 nM.

`Cc1ccc(NC(=O)C2(c3ccccc3C(C)C)CN(C(=O)C[C@H](O)C(=O)O)C2)c(OC(F)F)n1` [Ex 12-34, (S)-4-(3-((2-(difluoromethoxy)-6-methylpyridin-3-yl)carbamoyl)-3-(2-isopropylphenyl)azetidin-1-yl)-2-hydroxy-4-oxobutanoic acid] gave an IC50 of 33 nM.

Compound `Cc1ccc(NC(=O)C2(c3ccccc3C(C)C)CN(C(=O)C[C@@H](O)C(=O)O)C2)c(OC(F)F)n1` [Ex 12-35, (R)-4-(3-((2-(difluoromethoxy)-6-methylpyridin-3-yl)carbamoyl)-3-(2-isopropylphenyl)azetidin-1-yl)-2-hydroxy-4-oxobutanoic acid] gave an IC50 of 41 nM. The IC50 values of the last two compounds are within 1.5-fold of each other.

The compound `Cc1ccc(NC(=O)C2(c3ccccc3C(C)C)CCN(C(=O)C[C@@H]3OC(C)(C)OC3=O)CC2)c(OC(F)F)n1` [Ex 12-36, (S)-N-(2-(difluoromethoxy)-6-methylpyridin-3-yl)-1-(2-(2,2-dimethyl-5-oxo-1,3-dioxolan-4-yl)acetyl)-4-(2-isopropylphenyl)piperidine-4-carboxamide] had an IC50 of 21 nM. `Cc1ccc(NC(=O)C2(c3ccccc3C(C)C)CCN(C(=O)C[C@H](O)C(=O)O)CC2)c(OC(F)F)n1` [Ex 12-37, (S)-4-(4-((2-(difluoromethoxy)-6-methylpyridin-3-yl)carbamoyl)-4-(2-isopropylphenyl)piperidin-1-yl)-2-hydroxy-4-oxobutanoic acid] had an IC50 of 22 nM. In turn, `Cc1ccc(NC(=O)C2(c3ccccc3C(C)C)CN(C(=O)CC3(N)COC3)C2)c(OC(F)F)n1` [Ex 12-38, 1-(2-(3-aminooxetan-3-yl)acetyl)-N-(2-(difluoromethoxy)-6-methylpyridin-3-yl)-3-(2-isopropylphenyl)azetidine-3-carboxamide] had an IC50 of 25 nM. As for `Cc1ccc(NC(=O)C2(c3ccccc3C(C)C)CN(C(=O)[C@H](CO)NC(=O)OC(C)(C)C)C2)c(OC(F)F)n1` [Ex 12-39, tert-butyl (S)-(1-(3-((2-(difluoromethoxy)-6-methylpyridin-3-yl)carbamoyl)-3-(2-isopropylphenyl)azetidin-1-yl)-3-hydroxy-1-oxopropan-2-yl)carbamate], the midpoint of inhibition, the IC50, lay at 481 nM. Against the preceding compound, the IC50 is about 19-fold higher. In the case of `Cc1ccc(NC(=O)C2(c3ccccc3C(C)C)CN(C(=O)[C@@H](N)CO)C2)c(OC(F)F)n1` [Ex 12-40, 1-(L-seryl)-N-(2-(difluoromethoxy)-6-methylpyridin-3-yl)-3-(2-isopropylphenyl)azetidine-3-carboxamide] it was 60 nM; in that of `Cc1ccc(NC(=O)C2(c3ccccc3C(C)C)CN(C(=O)C3C[C@H](O)CN3)C2)c(OC(F)F)n1` (stereo partly drawn) [Ex 12-41, N-(2-(difluoromethoxy)-6-methylpyridin-3-yl)-1-((4S)-4-hydroxypyrrolidine-2-carbonyl)-3-(2-isopropylphenyl)azetidine-3-carboxamide], 69 nM; in that of `Cc1ccc(NC(=O)C2(c3ccccc3C(C)C)CN(C(=O)[C@H]3CNCCO3)C2)c(OC(F)F)n1` [Ex 12-42, (R)-N-(2-(difluoromethoxy)-6-methylpyridin-3-yl)-3-(2-isopropylphenyl)-1-(morpholine-2-carbonyl)azetidine-3-carboxamide], 71 nM. For the compound `Cc1ccc(NC(=O)C2(c3ccccc3C(C)C)CN(C(=O)C3COCCN3)C2)c(OC(F)F)n1` (centres unmarked) [Ex 12-43, N-(2-(difluoromethoxy)-6-methylpyridin-3-yl)-3-(2-isopropylphenyl)-1-(morpholine-3-carbonyl)azetidine-3-carboxamide], the 50% inhibitory concentration (IC50) was determined as 106 nM. Take `Cc1ccc(NC(=O)C2(c3ccccc3C(C)C)CN(C(=O)C[C@H]3COCCN3)C2)c(OC(F)F)n1` [Ex 12-44, (S)-N-(2-(difluoromethoxy)-6-methylpyridin-3-yl)-3-(2-isopropylphenyl)-1-(2-(morpholin-3-yl)acetyl)azetidine-3-carboxamide]: the IC50 amounted to 79 nM. For the compound `Cc1ccc(NC(=O)C2(c3ccccc3C(C)C)CN(C(=O)C[C@@H]3COCCN3)C2)c(OC(F)F)n1` [Ex 12-45, (R)-N-(2-(difluoromethoxy)-6-methylpyridin-3-yl)-3-(2-isopropylphenyl)-1-(2-(morpholin-3-yl)acetyl)azetidine-3-carboxamide], the IC50 worked out at 61 nM. For `Cc1ccc(NC(=O)C2(c3ccccc3C(C)C)CN(C(=O)CC3NCCNC3=O)C2)c(OC(F)F)n1` (centres unmarked) [Ex 12-46, N-(2-(difluoromethoxy)-6-methylpyridin-3-yl)-3-(2-isopropylphenyl)-1-(2-(3-oxopiperazin-2-yl)acetyl)azetidine-3-carboxamide], the IC50 came to 556 nM.

`COCCN(CC(=O)N1CCC(C(=O)Nc2ccc(C)nc2OC(F)F)(c2ccccc2C(C)C)CC1)C(=O)OC(C)(C)C` [Ex 12-47, tert-butyl (2-(4-((2-(difluoromethoxy)-6-methylpyridin-3-yl)carbamoyl)-4-(2-isopropylphenyl)piperidin-1-yl)-2-oxoethyl)(2-methoxyethyl)carbamate]: the IC50 stood at 59 nM. In the case of `COCCNCC(=O)N1CCC(C(=O)Nc2ccc(C)nc2OC(F)F)(c2ccccc2C(C)C)CC1` [Ex 12-48, N-(2-(difluoromethoxy)-6-methylpyridin-3-yl)-4-(2-isopropylphenyl)-1-((2-methoxyethyl)glycyl)piperidine-4-carboxamide] it was 9 nM.

`Cc1ccc(NC(=O)C2(c3ccccc3C(C)C)CCN(C(=O)CN(CCO)C(=O)OC(C)(C)C)CC2)c(OC(F)F)n1` [Ex 12-49, tert-butyl (2-(4-((2-(difluoromethoxy)-6-methylpyridin-3-yl)carbamoyl)-4-(2-isopropylphenyl)piperidin-1-yl)-2-oxoethyl)(2-hydroxyethyl)carbamate] yielded an IC50 of 30 nM.

The record behind these values is patent US12344597B2, “Alkoxy-substituted pyridinyl derivatives as LPA1 receptor antagonists and their use in the treatment of fibrosis” (IDORSIA PHARMACEUTICALS LTD, priority 2018, dated 2025).
